This passage reports Kd and IC50 results from patent US20260022118A1, “HETEROCYCLIC COMPOUNDS AS NRAS INHIBITORS” (Board of Regents, The University of Texas System, priority 2023, published 2026).

NRAS G12D C118S, sequence (P01111 whole entry G12D/C118S): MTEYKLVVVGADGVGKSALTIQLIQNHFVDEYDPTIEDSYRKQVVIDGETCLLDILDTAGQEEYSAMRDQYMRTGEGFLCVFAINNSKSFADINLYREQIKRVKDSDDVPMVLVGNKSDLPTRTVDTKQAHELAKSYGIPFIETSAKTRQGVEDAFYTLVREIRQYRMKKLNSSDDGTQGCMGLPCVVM

The target in one assay is NRAS G12D C118S (Homo sapiens (Human), UniProt P01111, C118S/G12D). Put plainly: NRas G12D Surface Plasmon Resonance (SPR) binding assay. The following applies: Avi-tagged biotinylated NRAS G12D C118S on streptavidin chip, 25° C., 1:1 kinetic or steady-state fit. How it is done:
NRas G12D Surface Plasmon Resonance (SPR) Binding Assay
This Example illustrates that exemplary compounds and salts thereof described herein bind to NRAS G12D as measured by surface plasmon resonance (SPR).
Two liters of 1.03× running buffer (1.03×HBS-P+pH 7.4, containing 0.0103 M HEPES, 0.1545 M NaCl, 0.0515% v/v Surfactant P20 (Cytiva®, BR100671); 5.15 mM MgCl2 (Invitrogen, AM9530G); 0.515 mM TCEP, pH 8.0 (GoldBio®, TCEP25)) was prepared and filter sterilized using a 0.22 μm filter. A 1-L volumetric flask was filled partway with this buffer. A 30-mL volumetric flask was used to measure 30 mL of 100% DMSO (Sigma Aldrich®, 41639-100ML) which was added to the 1-L flask. The solution in the 1-L flask was brought up to 1 L with 1.03× buffer, resulting in a 1.0× assay running buffer containing 1.0×HBS-P+, 5 mM MgCl2, […], and 3% DMSO. Remaining 1.03× buffer was used for preparation of samples and immobilization running buffer.
Samples were prepared in a standard conical-bottomed 384-well microplate by adding 2 μL 10 mM DMSO cpd stock to each well, followed by 8 μL DMSO. A control compound was selected based off of its relatively “fast” kinetics that could be fitted by 1:1 kinetic fitting, as well as by steady-state fitting. Control wells for periodic injection to assess protein activity throughout the assay were also assembled, by diluting 10 mM compound 1:30 in DMSO, then adding 20 μL to the appropriate wells, such that the final concentration of compound would be 10 μM, and the final concentration of DMSO would be 3%. A Biomek™ FXP Laboratory Automation Workstation was used to stamp 20 μL DMSO into all sample wells—minus the control wells—according to the plate map, and then serially dilute 1:3 by mixing and aspirating 10 μL, delivering into the 20 μL of DMSO in the next well, resulting in 10-point serial dilution curves. A Biotek™ Multiflo EL406 Washer Dispenser was used to deliver 80 μL of 1.03× buffer to the compound plate. The plate was mixed 10× by FX, then a final dilution was performed by stamping 18 μL from the compound plate into a 384-well deep-well plate that had also been previously filled with 102 μL 1.03× buffer via the Multiflo. The solution in the deep-well plate was mixed 10× by FX, then sealed with a 384-well microplate foil from Cytiva® (Cytiva® BR100577) and placed on an orbital shaker for 30 minutes at 1000 RPM to ensure complete mixing of the DMSO solution in the buffer. A solvent correction curve was also prepared by making a 4% DMSO solution in 1.03× buffer and diluting in 1.03× buffer such that there were eight solutions of decreasing DMSO concentrations resulting in a high DMSO concentration of 4% and a low concentration of 2% DMSO.
Immobilization running buffer was prepared in a 200-mL volume by diluting 1.03× running buffer prepared above to 1.0×. A Cytiva® Streptavidin chip (Cytiva®, 29104992) was docked into a Biacore™ S200 instrument, and the instrument was then primed three times into the immobilization running buffer. A protein stock of Avi-tagged NRAS G12D C118S was prepared in-house and biotinylated using the Bulk BirA: BirA biotin-protein ligase bulk reaction kit from Avidity (Avidity®, Bulk BirA). Upon completion of the biotinylation reaction, Amicon® ultra 0.5-mL Centrifugal Filters with a MWCO of 3 k Da (Millipore® UFC500396) were used to reduce the free biotin concentration below 0.1 μM in the protein sample over the course of eight desalting cycles, according to the manufacturer's protocol. Resulting protein concentration was not measured directly as an accurate protein concentration is not required for immobilizing protein on the chip surface; however, a theoretical yield of ≤1.5 mg/mL was estimated based off of retained volumes during the desalting process. Reagents for immobilization were prepared as instructed in the Biacore™ 5200 Control Software Immobilization Wizard, including solutions of 1 M NaCl in 50 mM NaOH, and 1 M NaCl in 50 mM NaOH and 50% isopropyl alcohol. […]
The Kd is a measure of binding affinity in units of concentration. Read a high Kd as lower affinity. Consider `C#Cc1c(F)ccc2cc(O)cc(-c3ncc4c([C@H]5[C@@H]6CNC[C@@H]65)c(CO)n(C)c4c3F)c12` [Example 23, 4-(3-((1R,5S,6s)-3-azabicyclo[3.1.0]hexan-6-yl)-7-fluoro-2-(hydroxymethyl)-1-methyl-1H-pyrrolo[3,2-c]pyridin-6-yl)-5-ethynyl-6-fluoronaphthalen-2-ol], for which the Kd was determined as 13.7 µM.
The same measure, in the same setting: the figure for `C#Cc1c(F)ccc2cc(O)cc(-c3cc4c(cn3)c(N3CC5CCC(C3)N5)nn4CCC)c12` [Example 7, 4-(3-(3,8-diazabicyclo[3.2.1]octan-3-yl)-1-propyl-1H-pyrazolo[4,3-c]pyridin-6-yl)-5-ethynyl-6-fluoronaphthalen-2-ol] is 4.75 µM; for `C#Cc1c(F)ccc2cc(O)cc(-c3ncc4c(N[C@H]5[C@@H]6CNC[C@@H]65)nn(CC)c4c3F)c12` [Example 11, 4-(3-(((1R,5S,6s)-3-azabicyclo[3.1.0]hexan-6-yl)amino)-1-ethyl-7-fluoro-1H-pyrazolo[4,3-c]pyridin-6-yl)-5-ethynyl-6-fluoronaphthalen-2-ol] it is 31 µM.
`C#Cc1c(F)ccc2cc(O)cc(-c3ncc4c(N5CC6CCC(C5)N6)nn(CC5CCOC5)c4c3F)c12` (stereo not shown) [Example 15, 4-(3-(3,8-diazabicyclo[3.2.1]octan-3-yl)-7-fluoro-1-((tetrahydrofuran-3-yl)methyl)-1H-pyrazolo[4,3-c]pyridin-6-yl)-5-ethynyl-6-fluoronaphthalen-2-ol]: binding was put at a Kd of 5.97 µM.

Another assay concerns THP-1 cells expressing G12D (NRAS G12D). Put plainly: Inhibition of NRAS G12D-mediated phosphorylation of ERK (AlphaLISA p-ERK1/2) in THP-1 cells. Format: cell-based. The following applies: Homo sapiens, THP-1, 2 h, 2 hours incubation, HBSS with 0% or 10% FBS, p-ERK1/2 (Thr202/Tyr204) AlphaLISA, read-out: pERK THP-1 IC50. As to the method:
Inhibition of NRAS G12D-Mediated Phosphorylation of ERK by Exemplary Compounds of Formulas I, II, and III.
This Example illustrates that exemplary compounds and salts thereof described herein inhibit the phosphorylation of ERK downstream of NRAS G12D.
THP-1 cells (ATCC TIB-202) expressing G12D were maintained in RPMI-1640 medium supplemented with 10% fetal bovine serum (FBS), 0.05 mM 2-mercaptoethanol, and penicillin/streptomycin. Cells (20,000/well) were seeded onto a 384 well plate in 20 μL of HBSS supplemented with 0% or 10% FBS. Cells were incubated in the absence or presence of various concentrations of test compound (final 1% DMSO) for 2 hours. p-ERK expression was assessed using the AlphaLISA SureFire Ultra p-ERK1/2 (Thr202/Tyr204) (PerkinElmer®, ALSU-PERK-A10K) following manufacturer recommendation. Plates were read on a PerkinElmer® Envision Multimode plate reader. Dose-response curves were analyzed using IC50 regression curve fitting (GeneData Screener). Curves were plotted as a percent control and normalized by high controls without inhibitor (100%), and low controls (0%) containing 1 μM of trametinib, a potent MEK inhibitor.
(In general: In Alpha technology, singlet oxygen from a donor bead excites a nearby acceptor bead.)
In general, IC50 refers to the concentration at which inhibition is half-maximal. For `C#Cc1c(F)ccc2cc(O)cc(-c3ncc4c(N5C[C@@H]6CC[C@H]5CN6)c(C)n(C)c4c3F)c12` [Example 107, 4-(3-((1S,4S)-2,5-diazabicyclo[2.2.2]octan-2-yl)-7-fluoro-1,2-dimethyl-1H-pyrrolo[3,2-c]pyridin-6-yl)-5-ethynyl-6-fluoronaphthalen-2-ol], the IC50 is > 10 µM.
Same read-out and setting: the figure for `C#Cc1c(F)ccc2cc(O)cc(-c3ncc4c(N5C6CNCC5C6)nn(C)c4c3F)c12` [Example 35, 4-[3-(3,6-diazabicyclo[3.1.1]heptan-6-yl)-7-fluoro-1-methyl-pyrazolo[4,3-c]pyridin-6-yl]-5-ethynyl-6-fluoro-naphthalen-2-ol] is 4.66 µM; for `C#Cc1c(F)ccc2cc(O)cc(-c3ncc4c(N5C[C@@H](C)N[C@@H](C)C5)nn(C)c4c3F)c12` [Example 32, 4-[3-[(3R,5S)-3,5-dimethylpiperazin-1-yl]-7-fluoro-1-methyl-pyrazolo[4,3-c]pyridin-6-yl]-5-ethynyl-6-fluoro-naphthalen-2-ol] it is > 50 µM.
For the compound `C#Cc1c(F)ccc2cc(O)cc(-c3nc(N4CCC4)c4c([C@H]5[C@@H]6CNC[C@@H]65)nn(C5CC5)c4c3F)c12` [Example 79, 4-(4-(azetidin-1-yl)-3-((1R,5S,6r)-3-azabicyclo[3.1.0]hexan-6-yl)-1-cyclopropyl-7-fluoro-1H-pyrazolo[4,3-c]pyridin-6-yl)-5-ethynyl-6-fluoronaphthalen-2-ol], the IC50 was 0.603 µM.
Consider `C#Cc1c(F)ccc2cc(O)cc(-c3nc4c5c(nn(C)c5c3F)N3C[C@H]5CC[C@H](N5)[C@H]3CO4)c12` [Example 95, 5-ethynyl-6-fluoro-4-[(4R,7S,8S)-14-fluoro-16-methyl-10-oxa-2,12,16,17,19-pentazapentacyclo[9.6.1.14,7.02,8.015,18]nonadeca-1(17),11(18),12,14-tetraen-13-yl]naphthalen-2-ol], for which the IC50 was > 10 µM.
Regarding `C#Cc1c(F)ccc2cc(O)cc(-c3ncc4c(N5C[C@@H]6CC[C@H]5CN6)nn(C5CC5)c4n3)c12` [Example 101, 4-(3-((1S,4S)-2,5-diazabicyclo[2.2.2]octan-2-yl)-1-cyclopropyl-1H-pyrazolo[3,4-d]pyrimidin-6-yl)-5-ethynyl-6-fluoronaphthalen-2-ol], the half-maximal inhibitory concentration (IC50) was > 10 µM.
Same read-out and setting: the same measure for `C#Cc1c(F)ccc2cc(O)cc(-c3nc(C)c4c([C@H]5[C@@H]6CNC[C@@H]65)nn(C5CC5)c4c3F)c12` [Example 51, 4-[3-(3-azabicyclo[3.1.0]hexan-6-yl)-1-cyclopropyl-7-fluoro-4-methyl-pyrazolo[4,3-c]pyridin-6-yl]-5-ethynyl-6-fluoro-naphthalen-2-ol]: 0.25 µM; for `C#Cc1c(F)ccc2cc(O)cc(-c3nc(C(C)O)c4c([C@H]5[C@@H]6CNC[C@@H]65)nn(C5CC5)c4c3F)c12` (stereo partly drawn) [Example 87, 4-(3-((1R,5S,6r)-3-azabicyclo[3.1.0]hexan-6-yl)-1-cyclopropyl-7-fluoro-4-(1-hydroxyethyl)-1H-pyrazolo[4,3-c]pyridin-6-yl)-5-ethynyl-6-fluoronaphthalen-2-ol]: 0.112 µM.
Same read-out and setting: the figure for `C#Cc1c(F)ccc2cc(O)cc(-c3ncc4c([C@H]5[C@@H]6CNC(COC)[C@@H]65)nn(C5CC5)c4c3F)c12` (stereo partly drawn) [Example 99, 4-(1-cyclopropyl-7-fluoro-3-((1S,5R,6S)-2-(methoxymethyl)-3-azabicyclo[3.1.0]hexan-6-yl)-1H-pyrazolo[4,3-c]pyridin-6-yl)-5-ethynyl-6-fluoronaphthalen-2-ol] is > 10 µM.
Regarding `C#Cc1c(F)ccc2cc(O)cc(-c3nc(OC4COC4)c4c([C@H]5[C@@H]6CNC[C@@H]65)nn(C5CC5)c4c3F)c12` [Example 71, 4-(3-((1R,5S,6r)-3-azabicyclo[3.1.0]hexan-6-yl)-1-cyclopropyl-7-fluoro-4-(oxetan-3-yloxy)-1H-pyrazolo[4,3-c]pyridin-6-yl)-5-ethynyl-6-fluoronaphthalen-2-ol], the 50% inhibitory concentration (IC50) is > 10 µM.
Still for that read-out and setting: the same measure for `C#Cc1c(F)ccc2cc(O)cc(-c3nc(C4CCC4)c4c([C@H]5[C@@H]6CNC[C@@H]65)nn(C5CC5)c4c3F)c12` [Example 54, 4-[3-(3-azabicyclo[3.1.0]hexan-6-yl)-4-cyclobutyl-1-cyclopropyl-7-fluoro-pyrazolo[4,3-c]pyridin-6-yl]-5-ethynyl-6-fluoro-naphthalen-2-ol]: 0.0164 µM; for `C#Cc1c(F)ccc2cc(O)cc(-c3ncc4c(C5[C@H]6CNC[C@@H]56)nc(C)n4c3F)c12` (stereo partly shown) [Example 98, 4-[1-(3-azabicyclo[3.1.0]hexan-6-yl)-5-fluoro-3-methyl-imidazo[1,5-a]pyrazin-6-yl]-5-ethynyl-6-fluoro-naphthalen-2-ol]: 9.27 µM.
